This passage reports IC50 results from patent US20230242494A1, “MALONITRILE DERIVATIVES” (Hoffmann-La Roche Inc., priority 2020, published 2023).

pIC50: −log10 of the molar value.

The pIC50 is the negative decadic logarithm of the IC50, by convention in mol/L.

T1 sequence (Q8N884 161-522): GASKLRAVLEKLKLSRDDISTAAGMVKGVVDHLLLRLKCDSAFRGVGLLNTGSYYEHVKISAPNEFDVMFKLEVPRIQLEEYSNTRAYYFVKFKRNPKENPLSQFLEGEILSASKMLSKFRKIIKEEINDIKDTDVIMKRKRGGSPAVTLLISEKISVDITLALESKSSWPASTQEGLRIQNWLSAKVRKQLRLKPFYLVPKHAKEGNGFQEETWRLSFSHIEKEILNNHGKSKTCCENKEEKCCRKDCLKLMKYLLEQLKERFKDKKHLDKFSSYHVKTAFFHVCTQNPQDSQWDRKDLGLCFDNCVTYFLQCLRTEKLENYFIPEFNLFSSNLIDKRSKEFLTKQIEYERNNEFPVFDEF

This assay addresses T1, human cGAS (residues 161-522) (Homo sapiens, UniProt Q8N884).
T1 construct: human cGAS (residues 161-522); made in house
Kind of assay: cGAS Activity Assay—Malachite Green. The following applies: recombinant purified human cGAS 25 nM; 80 μM ATP, 80 μM GTP, 100 nM ISD; 4 hour at RT; phosphate detection by Malachite Green. It counts as biochemical. The method, then: Compounds were tested for cGAS inhibition in a coupled enzymatic assay based on Phosphate detection by Malachite Green. Final assay conditions were 20 mM TRIS pH 7.5 (Applichem), 5 mM MgCl2 (Sigma) and 0.01% BSA (Sigma) supplemented with 80 μM ATP (Sigma), 80 μM GTP (Sigma) and 100 nM Interferon Stimulating DNA (ISD) (Microsynth). Recombinantly expressed purified human cGAS (residues 161-522) was used at 25 nM.
All compounds were prepared as 10 mM stock solutions in DMSO and a 16 pt dilution series in DMSO with a dilution factor of 2.5 was prepared. 1 μL of DMSO dilution series was transferred to 32.3 μL reaction buffer, mixed by pipetting up/down, spun for 1 minute at 3000 rpm and was visually inspected for precipitation. 5 μL of 3-fold enzyme stock solution were transferred to an empty 384-well Black/Clear Flat Bottom Polystyrene NBS (Corning) rows 3-24. Rows 1-2 were filled with assay buffer. Plates were spun 10 seconds at 1000 rpm (164×g). 5 μL of compound intermediate dilution was added and mixed by pipetting up/down to rows 3-24. Rows 1-2 were filled with 3.1% DMSO assay buffer. Plates were spun 10 seconds at 1000 rpm (164×g). 5 μL 3-fold Nucleotide/DNA mix was added to all wells to start the reaction. Plates were spun 10 seconds at 1000 rpm (164×g) and incubated for 4 hour at room temperature (RT) in the dark. 5 μL 4 U/ml PPase (Sigma) were added to all wells. Plates spun 10 seconds at 1000 rpm (164×g). 10 μL BioMol green Solution (Enzo Life Sciences) was added to all wells. Plates spun 10 seconds at 1000 rpm (164×g) and incubated 30 minutes at RT in the dark. Absorbance data was collected 620 nm on an EnVision Multilable Reader (Perkin Elmer) and the following measurement settings were used: excitation filter photometric was 620 nm; excitation from the top; measurement height was 1 mm; number of flashes was 30; number of flashes integrated was 1.
All plates are checked for abnormalities and outliers in the Blank Control (no protein, row 1) and the Neutral Control (no compound, row 2) are excluded using the 3*SD rule. Data was normalized to 0 and 100% by Blank and Neutral Control and each curve was fitted and judged using the 4 parameter logistic equation to determine the IC50 for cGAS inhibition.
Table 13 provides IC50 values (μM) for cGAS inhibition obtained for particular examples of the present invention as measured by the above-described assay.
In the case of `Cc1oncc1/C(O)=C(\C#N)C(=O)Nc1ccc(S(=O)(=O)N(C)C)cc1` [Example 1, (Z)-2-cyano-N-(4-(N,N-dimethylsulfamoyl)phenyl)-3-hydroxy-3-(5-methylisoxazol-4-yl)acrylamide], the pIC50 is 6.77. Then `CC(=O)c1ccc(NC(=O)/C(C#N)=C(\O)c2cnoc2C)cc1` [Example 2, (Z)-N-(4-acetylphenyl)-2-cyano-3-hydroxy-3-(5-methylisoxazol-4-yl)prop-2-enamide], with 6.29; and `Cc1oncc1/C(O)=C(\C#N)C(=O)Nc1ccccc1` [Example 3, (Z)-2-cyano-3-hydroxy-3-(5-methylisoxazol-4-yl)-N-phenylacrylamide], with 5.97; and `Cc1oncc1/C(O)=C(\C#N)C(=O)Nc1ccc(C(F)(F)F)cc1` [Example 4, (Z)-2-cyano-3-hydroxy-3-(5-methylisoxazol-4-yl)-N-(4-(trifluoromethyl)phenyl) acrylamide], with 6.02. Then `Cc1oncc1/C(O)=C(\C#N)C(=O)Nc1cccc(C(F)(F)F)c1` [Example 5, (Z)-2-cyano-3-hydroxy-3-(5-methylisoxazol-4-yl)-N-[3-(trifluoromethyl)phenyl] prop-2-enamide], with 5.82.

`Cc1oncc1/C(O)=C(\C#N)C(=O)Nc1cc(C(F)(F)F)cc(C(F)(F)F)c1` [Example 6, (Z)-N-(3,5-bis(trifluoromethyl)phenyl)-2-cyano-3-hydroxy-3-(5-methylisoxazol-4-yl)acrylamide]: the pIC50 was 5.16. For `Cc1oncc1/C(O)=C(\C#N)C(=O)Nc1ccc(C#N)cc1` [Example 7, (Z)-2-cyano-N-(4-cyanophenyl)-3-hydroxy-3-(5-methylisoxazol-4-yl)acrylamide] the value was 6.10; for `COC(=O)c1ccc(NC(=O)/C(C#N)=C(\O)c2cnoc2C)cc1` [Example 8, methyl (Z)-4-(2-cyano-3-hydroxy-3-(5-methylisoxazol-4-yl)acrylamido)benzoate], 6.47; for `Cc1oncc1/C(O)=C(\C#N)C(=O)Nc1ccccc1C(F)(F)F` [Example 9, (Z)-2-cyano-3-hydroxy-3-(5-methylisoxazol-4-yl)-N-(2-(trifluoromethyl)phenyl) acrylamide], 5.14. For `Cc1oncc1/C(O)=C(\C#N)C(=O)Nc1ccc(F)cc1` [Example 10, (Z)-2-cyano-N-(4-fluorophenyl)-3-hydroxy-3-(5-methylisoxazol-4-yl)acrylamide] the value was 5.83; for `Cc1oncc1/C(O)=C(\C#N)C(=O)Nc1ccc(OC(F)(F)F)cc1` [Example 11, (Z)-2-cyano-3-hydroxy-3-(5-methylisoxazol-4-yl)-N-(4-(trifluoromethoxy)phenyl) acrylamide], 5.89; for `Cc1oncc1/C(O)=C(\C#N)C(=O)Nc1ccc(Cl)c(Cl)c1` [Example 12, (Z)-2-cyano-N-(3,4-dichlorophenyl)-3-hydroxy-3-(5-methylisoxazol-4-yl)acrylamide], 5.59. For `Cc1oncc1/C(O)=C(\C#N)C(=O)Nc1ccc(Sc2ccc(Cl)cc2)cc1` [Example 13, (Z)-N-(4-((4-chlorophenyl)thio)phenyl)-2-cyano-3-hydroxy-3-(5-methylisoxazol-4-yl)acrylamide] the value was 5.46; for `CSc1ccc(NC(=O)/C(C#N)=C(\O)c2cnoc2C)cc1` [Example 14, (Z)-2-cyano-3-hydroxy-3-(5-methylisoxazol-4-yl)-N-(4-(methylthio)phenyl) acrylamide], 6.17. In the case of `Cc1oncc1/C(O)=C(\C#N)C(=O)Nc1ccc(Cl)c(C(F)(F)F)c1` [Example 15, (Z)-N-(4-chloro-3-(trifluoromethyl)phenyl)-2-cyano-3-hydroxy-3-(5-methylisoxazol-4-yl)acrylamide], the pIC50 is 5.45.

For the compound `Cc1oncc1/C(O)=C(\C#N)C(=O)Nc1ccc(S(=O)(=O)c2ccc(Cl)cc2)cc1` [Example 16, (Z)-N-(4-((4-chlorophenyl)sulfonyl)phenyl)-2-cyano-3-hydroxy-3-(5-methylisoxazol-4-yl)acrylamide], the pIC50 was 6.57. Regarding `COc1ccc(NC(=O)/C(C#N)=C(\O)c2cnoc2C)cc1` [Example 17, (Z)-2-cyano-3-hydroxy-N-(4-methoxyphenyl)-3-(5-methylisoxazol-4-yl)acrylamide], the pIC50 is 6.19. Consider `Cc1oncc1/C(O)=C(\C#N)C(=O)Nc1ccc(Oc2cccc(C(F)(F)F)c2)cc1` [Example 18, (Z)-2-cyano-3-hydroxy-3-(5-methylisoxazol-4-yl)-N-(4-(3-(trifluoromethyl)phenoxy)phenyl)acrylamide], for which the pIC50 is 5.43. Then `Cc1cc(NC(=O)/C(C#N)=C(\O)c2cnoc2C)ccc1Oc1ccc(C(F)(F)F)cc1` [Example 19, (Z)-2-cyano-3-hydroxy-N-(3-methyl-4-(4-(trifluoromethyl)phenoxy)phenyl)-3-(5-methylisoxazol-4-yl)acrylamide], with 5.13; and `Cc1oncc1/C(O)=C(\C#N)C(=O)Nc1ccc(Cl)cc1` [Example 20, (Z)-N-(4-chlorophenyl)-2-cyano-3-hydroxy-3-(5-methylisoxazol-4-yl)acrylamide], with 5.95; and `Cc1oncc1/C(O)=C(\C#N)C(=O)Nc1ccc(-n2cccc2)cc1` [Example 21, (Z)-N-(4-(1H-pyrrol-1-yl)phenyl)-2-cyano-3-hydroxy-3-(5-methylisoxazol-4-yl)acrylamide], with 5.84.

For `Cc1cc(C#N)ccc1NC(=O)/C(C#N)=C(\O)c1cnoc1C` [Example 22, (Z)-2-cyano-N-(4-cyano-2-methylphenyl)-3-hydroxy-3-(5-methylisoxazol-4-yl)acrylamide], the pIC50 was 6.16. Then `Cc1cc(NC(=O)/C(C#N)=C(\O)c2cnoc2C)ccc1Br` [Example 23, (Z)-N-(4-bromo-3-methylphenyl)-2-cyano-3-hydroxy-3-(5-methylisoxazol-4-yl)acrylamide], with 5.74; and `Cc1oncc1/C(O)=C(\C#N)C(=O)Nc1ccc(Oc2ccc(Cl)cc2)c(Cl)c1` [Example 24, (Z)-N-(3-chloro-4-(4-chlorophenoxy)phenyl)-2-cyano-2-hydroxy-3-(5-methylisoxazol-4-yl)acrylamide], with 5.36. Then `COC(=O)c1cccc(NC(=O)/C(C#N)=C(\O)c2cnoc2C)c1` [Example 25, methyl 3-[[(Z)-2-cyano-3-hydroxy-3-(5-methylisoxazol-4-yl)prop-2-enoyl]amino]benzoate], with 5.82.

`Cc1oncc1/C(O)=C(\C#N)C(=O)Nc1cccc(S(C)(=O)=O)c1` [Example 26, (Z)-2-cyano-3-hydroxy-3-(5-methylisoxazol-4-yl)-N-(3-(methylsulfonyl)phenyl) acrylamide]: the pIC50 is 5.82. For `Cc1oncc1/C(O)=C(\C#N)C(=O)Nc1ccc(S(=O)(=O)N2CCCC2)cc1` [Example 27, (Z)-2-cyano-3-hydroxy-3-(5-methylisoxazol-4-yl)-N-(4-(pyrrolidin-1-ylsulfonyl)phenyl) acrylamide] the value was 6.82; for `CCOc1ccc(NC(=O)/C(C#N)=C(\O)c2cnoc2C)cc1` [Example 28, (Z)-2-cyano-N-(4-ethoxyphenyl)-3-hydroxy-3-(5-methylisoxazol-4-yl)prop-2-enamide], 6.12. For `COCCNS(=O)(=O)c1ccc(NC(=O)/C(C#N)=C(\O)c2cnoc2C)cc1` [Example 29, (Z)-2-cyano-3-hydroxy-N-(4-(N-(2-methoxyethyl)sulfamoyl)phenyl)-3-(5-methylisoxazol-4-yl)acrylamide] the value was 7.15; for `Cc1oncc1/C(O)=C(\C#N)C(=O)Nc1ccc(S(=O)(=O)c2ccccc2)cc1` [Example 30, (Z)-2-cyano-3-hydroxy-3-(5-methylisoxazol-4-yl)-N-(4-(phenylsulfonyl)phenyl) acrylamide], 6.80.

As to `COc1ccc(NC(=O)/C(C#N)=C(\O)c2cnoc2C)cc1C` [Example 31, (Z)-2-cyano-3-hydroxy-N-(4-methoxy-3-methyl-phenyl)-3-(5-methylisoxazol-4-yl)prop-2-enamide], the pIC50 is 5.89. Then `COC(=O)Cc1ccc(NC(=O)/C(C#N)=C(\O)c2cnoc2C)cc1` [Example 32, methyl 2-[4-[[(Z)-2-cyano-3-hydroxy-3-(5-methylisoxazol-4-yl)prop-2-enoyl]amino]phenyl] acetate], with 6.28.
